Read-outs that look alike come from different tables or passages of the source.
Tests used:
α7 = details: alone and co-applied with an α7 PAM; cited from earlier work
α7 nAChR [1] = target: T1, α7 nAChR (Homo sapiens, UniProt P36544); experiment: α7 concentration-response on co-application with 10 µM PNU-120596; assay type: cell-based; details: peak currents, co-applied with 10 µM PNU-120596, Hill fit; for IMax (PNU Activation): approximation only
T1 construct: expressed in transfected cells; host or cells: Xenopus laevis oocytes (injected RNA)
Procedure: (§1) Compounds were co-applied at a concentration of 100 µM with 30 µM racemic TQS (Figure 3A). All compounds except S4, S5, and S8 gave large responses when co-applied with TQS, consistent with silent agonism of α7 (see Table S1 for ANOVA). Active compounds were also evaluated across a range of concentrations with the alternative PAM, PNU-120596 (Figure 3B). The curve-fit values for Imax (Table 1) should be taken only as approximation of the relative efficacies of the compounds, due to the large variability frequently observed in PNU-120596-potentiated responses, as evidenced by the large SEMs of the responses obtained with high concentrations.
(§2) Figure 3 Responses of α7 nAChR to sulfonium compounds coapplied with PAMs. (A) Potentiation of α7 responses with 30 µM racemic TQS. Shown are the average net-charge responses of seven or eight oocytes ± SEM. (B) Concentration-response studies of peak currents generated by compounds that gave positive responses with TQS, coapplied with 10 µM PNU-120596. Each point represents the average (±SEM) of at least four oocytes.
(§3) Experiments were conducted using OpusXpress 6000A (Molecular Devices, Union City, CA, USA). Both the voltage and current electrodes were filled with 3 M KCl. Oocytes were voltage-clamped at −60 mV at room temperature (24 °C). The oocytes were bath-perfused with Ringer’s solution (115 mM NaCl, 2.5 mM KCl, 1.8 mM CaCl2, 10 mM HEPES, and 1 μM atropine, pH 7.2) at 2 mL/min for α7 receptors, or 4 mL/min for heteromeric nAChR. To evaluate the effects of experimental compounds, responses were compared to control ACh-evoked responses, defined as the average of two initial applications of ACh made before test applications. ACh control concentrations were 60 µM for α7 receptors; 100 µM for α4(3)β2(2) and α3β4 receptors; 30 µM for α4β2α6β2β3 and muscle-type (αβ1εδ) receptors; and 10 µM for α4(3)β2(2) and α4(2)β2(2)α5 receptors.
(§4) Solutions were applied from 96-well plates via disposable tips. Drug applications were 12 s in duration, followed by 181 s washout periods for α7 receptors, or 6 s in duration followed by 301 s washout periods for heteromeric nAChR. The responses were calculated as both peak current amplitudes and net charge, as previously described. Data were collected at 50 Hz, filtered at 20 Hz for α7 receptors or filtered at 5 Hz for heteromeric nAChR, and analyzed by Clampfit (Molecular Devices, San Jose, CA, USA) and Excel (Microsoft, Redmond, WA, USA). Data were expressed as means ± SEM from at least four oocytes for each experiment and plotted with Kaleidagraph 4.5.2 (Abelbeck Software, Reading, PA, USA). Multi-cell averages were calculated for comparisons of complex responses. Averages of the normalized data were calculated for each of the 10,322 points in each of the 206.44 s traces (acquired at 50 Hz), as well as the standard errors for those averages.

α7 nAChR [2] = target: T1, α7 nAChR; experiment: Inhibition of α7 ACh-evoked responses; assay type: cell-based; details: for effect on 60 µM ACh response at 1 mM: compound 1 mM co-applied with 60 µM ACh; for inhibition at 100 µM: read-out: inhibition of responses to 60 µM ACh; for inhibition of responses to 60 µM ACh: compound co-applied at 100 µM
Procedure: Figure 4 Effects sulfonium compounds on α7 ACh-evoked net-charge responses. (A) Effects of the sulfonium compounds at 100 µM co-applied with 60 µM relative to responses to 60 µM ACh applied alone. Data are the averages (±SEM) from seven or eight cells under each condition. (B) Effects of select sulfonium compounds at 1 mM co-applied with 60 µM relative to responses to 60 µM ACh applied alone. Data are the averages (±SEM) from seven or eight cells under each condition. Statistical significance was determined by pairwise t-test with p values corrected for multiple comparisons; * p < 0.05, ** p < 0.001.
The sulfonium compounds that were active with TQS but produced little inhibition of ACh response at a concentration of 100 µM were tested as inhibitors of ACh response at a concentration of 1 mM (Figure 4B).
We tested S8 across a range of concentrations for its ability to inhibit 60 µM ACh responses (Figure 5A). Note that we use 60 µM as an ACh control because this concentration gives nearly maximal (93%) net-charge responses, with the time course of the responses roughly following the speed of solution exchange. […] We tested whether inhibition of α7 responses by S8 was surmountable by increasing ACh concentration, consistent with a competitive mechanism of inhibition. However, since α7 responses to concentrations of ACh greater than 60 µM occur more rapidly than solution exchange in the chamber, we first pre-applied 5 µM S8 prior to the co-application of 5 µM S8 with either 60 µM or 1 mM ACh (Figure 5B). The 60 µM net-charge responses were reduced to 28 ± 2% of controls (n = 8) and 60 µM peak currents to 21 ± 3 % controls. The 1 mM net-charge responses were reduced to 56 ± 6 % of those obtained without S8 co-application, although the S8 co-application increased the peak-current amplitudes compared to 60 µM controls from 1.78 ± 0.15 to 3.72 ± 0.81 (n = 8).
Figure 5 Inhibition of α7 ACh-evoked responses by S8. (A) Concentration-response studies of α7 net-charge responses to 60 µM ACh co-applied with increasing concentrations of S8. To confirm the stability of the ACh responses, applications of ACh plus S8 were alternated with applications of ACh alone. Data are the averages of eight cells (±SEM). See text for curve-fit values. (B) Effects of 5 µM S8 on responses to either 60 µM or 1 mM ACh. The traces shown across the top are the averaged raw data from seven cells, each normalized to the peak current of the first ACh control response shown. In order to assure that the S8 was present at 5 µM throughout the ACh-evoked responses, a 30 s pre-application was made of 5 µM S8 alone. The lower traces show averaged responses to 60 µM or 1 mM ACh alone or with the 5 µM S8 pre- and co-application. The details of the data are described in Methods.
as §3
Solutions were applied from 96-well plates via disposable tips. Drug applications were 12 s in duration, followed by 181 s washout periods for α7 receptors, or 6 s in duration followed by 301 s washout periods for heteromeric nAChR. […]

α7 nAChR [3] = target: T1, α7 nAChR; experiment: α7 responses on co-application with the type II PAM TQS (silent agonism); assay type: cell-based; details: for α7 functional classification (silent agonist / inactive): inactive alone, active with a PAM = silent agonist; for response when co-applied with TQS: 100 µM compound with 30 µM racemic TQS, net charge
Procedure: as §1, §2
The human nAChR clones were obtained from Jon Lindstrom (University of Pennsylvania, Philadelphia, PA, USA). Mouse muscle subunit clones were obtained from Jim Boulter (Salk Institute, La Jolla, CA, USA) and Paul Gardner (Dartmouth, Hanover, NH, USA). The human resistance-to-cholinesterase 3 (RIC3) clone was obtained from Millet Treinin (Hebrew University, Jerusalem, Israel) and co-injected with α7 to improve the level and speed of α7 receptor expression without affecting the pharmacological properties of the receptors. Subsequent to linearization and purification of the plasmid DNAs, RNAs were prepared using the mMessage mMachine in vitro RNA transcription kit (Ambion, Austin, TX, USA).
as §3, §4

α3β4 nAChR = target: T2, α3β4 nAChR (Homo sapiens, UniProt P30926+P32297); experiment: Inhibition of α3β4 100 µM ACh-evoked peak currents; assay type: cell-based; details: co-application with 100 µM ACh, peak currents
T2 construct: expressed in transfected cells; host or cells: Xenopus laevis oocytes (injected RNA)
Procedure: (§5) Although none of the other sulfonium compounds activated neuronal heteromeric receptors, several of them produced inhibition of ACh-evoked responses. Shown in Figure 7A are concentration-response studies for the compounds that were active antagonists of α3β4 nAChR (Table 3). Some compounds were also tested as antagonists of α4β2 subtypes formed with concatamers (Figure 7B).
Figure 7 Inhibition of heteromeric nAChR by sulfonium compounds. (A) Inhibition of α3β4 100 µM ACh-evoked peak currents by the co-application of the sulfonium compounds. Data are the averaged of six to eight oocytes (±SEM). To confirm the stability of the ACh responses, applications of ACh plus the sulfonium compounds were alternated with applications of ACh alone. (B) Inhibition of ACh control peak-current responses of α4-containing nAChR formed with concatamers by 100 µM of the sulfonium compounds indicated. Data are the average of six to eight oocytes (±SEM).
as §3, §4

[4] = system: α4β2 subtypes formed with concatamers; experiment: Inhibition of ACh control peak-current responses of α4-containing nAChR formed with concatamers; assay type: cell-based, human; details: 100 µM compound, Figure 7B
Procedure: as §5
Figure 7 Inhibition of heteromeric nAChR by sulfonium compounds. (A) Inhibition of α3β4 100 µM ACh-evoked peak currents by the co-application of the sulfonium compounds. Data are the averaged of six to eight oocytes (±SEM). […]
as §4, with “Drug applications were 12 s in duration, followed by 181 s washout periods for α7 receptors, or 6 s in duration followed by 301 s washout periods for heteromeric nAChR.” left out

pKa by titration = assay type: physicochemical
Description: One of the questions that emerges from the data is why aromatic sulfoniums as structurally similar as S5, S9, and S10 provide different responses when coapplied with TQS. Indeed, compounds S5 and S9 virtually overlap in their best docked poses (Supplementary Figure S1), but the α7 response of S9 and TQS was dramatically greater than that of S5 and TQS (p < 0.001, Table S1). The formation of cation–pi interactions is a key feature of the binding of nicotinic orthosteric ligands, and the electronic distribution of the cation can be compared qualitatively in a series of compounds using molecular electrostatic potentials (MEPs). Analysis of the MEPs shown in Figure 9 reveal that the substituents on the benzene ring can modulate the intensity of the positive charge on the sulfonium center. Compound S5, for instance, has two hydroxyl groups which are strongly electron donating, and in comparison to compound S9, which has only one hydroxyl group, the intensity of the positive charge is […]. Another factor may be that a lone pair on the ortho hydroxyl substituent is donating electron density through space to the neighboring sulfonium, redistributing its positive charge. Compound S10 also has an ortho hydroxyl group, but unlike compound S5, compound S10 also has a nitro group, which is a strong electron-withdrawing group that may offset the electron-donating impact of the ortho hydroxyl group. Inspection of the MEP surface shown in Figure 9 does indicate that, relative to S5, the S10 sulfonium bears greater positive electrostatic potential. Given that compounds such as para-nitrophenol are acidic, with a pKa of ~7 for the phenolic hydroxyl, we also considered whether the deprotonated forms of S5, S9, and S10 might be accessible at the pH of our experiments.
Thus, all three compounds have varying proportions of the phenolic OH in the phenoxide form at the pH of Ringers solution used in the experiments. […] Future work on analogs of these compounds may be focused on substituents that are non-ionizable, and thus preserve a positive molecular charge derived from the sulfonium center.

[5] = 5 µM S8 pre-applied and co-applied

T1 sequence (P36544 23-502): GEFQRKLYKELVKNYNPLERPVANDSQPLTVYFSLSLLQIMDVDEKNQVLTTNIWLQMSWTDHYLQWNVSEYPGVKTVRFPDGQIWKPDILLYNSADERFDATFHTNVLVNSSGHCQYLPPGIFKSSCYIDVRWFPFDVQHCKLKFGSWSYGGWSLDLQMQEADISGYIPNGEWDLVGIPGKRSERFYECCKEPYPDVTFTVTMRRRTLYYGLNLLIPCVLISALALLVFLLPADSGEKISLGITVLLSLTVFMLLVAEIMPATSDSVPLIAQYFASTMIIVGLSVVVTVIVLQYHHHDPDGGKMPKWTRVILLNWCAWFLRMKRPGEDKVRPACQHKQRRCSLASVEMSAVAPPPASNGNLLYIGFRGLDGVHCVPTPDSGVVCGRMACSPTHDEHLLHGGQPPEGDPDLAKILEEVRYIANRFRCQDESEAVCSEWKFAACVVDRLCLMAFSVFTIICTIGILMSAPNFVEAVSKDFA
T2 sequence (P32297 32-505): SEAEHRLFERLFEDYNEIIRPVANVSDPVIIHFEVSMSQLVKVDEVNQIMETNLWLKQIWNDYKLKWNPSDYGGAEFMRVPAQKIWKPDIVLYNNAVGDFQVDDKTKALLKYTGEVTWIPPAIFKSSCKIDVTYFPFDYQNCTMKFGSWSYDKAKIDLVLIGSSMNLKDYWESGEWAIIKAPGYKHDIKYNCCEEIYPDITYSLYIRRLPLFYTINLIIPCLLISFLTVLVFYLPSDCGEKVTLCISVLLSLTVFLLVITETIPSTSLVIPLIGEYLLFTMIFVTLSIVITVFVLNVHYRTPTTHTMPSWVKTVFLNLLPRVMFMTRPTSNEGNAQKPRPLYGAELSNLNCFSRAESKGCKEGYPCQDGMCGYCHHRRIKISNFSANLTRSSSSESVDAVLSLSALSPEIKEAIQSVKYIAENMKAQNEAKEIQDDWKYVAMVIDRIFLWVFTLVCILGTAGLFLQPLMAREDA
T2 sequence (P30926 22-498): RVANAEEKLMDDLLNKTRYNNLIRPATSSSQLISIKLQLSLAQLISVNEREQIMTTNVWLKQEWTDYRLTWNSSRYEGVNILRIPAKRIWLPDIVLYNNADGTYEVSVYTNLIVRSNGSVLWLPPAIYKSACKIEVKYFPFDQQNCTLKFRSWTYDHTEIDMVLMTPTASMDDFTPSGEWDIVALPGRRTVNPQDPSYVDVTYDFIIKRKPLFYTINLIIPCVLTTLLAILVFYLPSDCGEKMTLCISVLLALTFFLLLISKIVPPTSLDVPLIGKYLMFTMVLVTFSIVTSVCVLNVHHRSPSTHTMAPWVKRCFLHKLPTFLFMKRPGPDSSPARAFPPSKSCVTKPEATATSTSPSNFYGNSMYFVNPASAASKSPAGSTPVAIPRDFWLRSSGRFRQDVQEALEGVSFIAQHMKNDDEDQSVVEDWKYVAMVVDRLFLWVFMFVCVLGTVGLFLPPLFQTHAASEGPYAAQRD

## CC[S+]1CCN(c2ccccc2)CC1.O=S(=O)([O-])C(F)(F)F [1-ethyl-4-phenylthiomorpholin-1-ium trifluoromethanesulfonate]
α7
  behaviour at α7: inactive when applied alone but active when co-applied with an α7 PAM

## CCOC(=O)C[S+](C)C.[Br-] [Compound S2, (2-ethoxy-2-oxoethyl)dimethylsulfonium bromide]
α7 nAChR [1]
  IMax (PNU Activation): 16 ± 6
α7 nAChR [2]
  effect on 60 µM ACh response at 1 mM: significant inhibition
  inhibition at 100 µM: ≤ 10%
α7 nAChR [3]
  α7 functional classification (silent agonist / inactive): efficacious silent agonist

## COc1ccc([N+](=O)[O-])cc1C[S+](C)C.[Br-] [Compound S3, (2-methoxy-5-nitrobenzyl)dimethylsulfonium bromide]
α7 nAChR [1]
  IMax (PNU Activation): 22 ± 2.5
α7 nAChR [1]; read-out: EC50 (PNU Activation)
  EC50: 263 ± 23 µM
α7 nAChR [2]
  inhibition at 100 µM: ~50%
α7 nAChR [3]
  α7 functional classification (silent agonist / inactive): silent agonist activity
α3β4 nAChR
  IC50: 18 ± 2.6 µM

## C[S+](C)CC(=O)c1ccccc1.F[B-](F)(F)F [Compound S7, dimethyl(2-oxo-2-phenylethyl)sulfonium tetrafluoroborate]
α7 nAChR [1]
  IMax (PNU Activation): >1.1
α7 nAChR [3]
  α7 functional classification (silent agonist / inactive): silent agonist activity

## OCC[S+](CCO)CCO.[Br-] [Compound S4, tris(2-hydroxyethyl)sulfonium bromide]
α7 nAChR [2]; net charge
  inhibition of responses to 60 µM ACh: failed to produce inhibition
α7 nAChR [3]
  response when co-applied with TQS: did not generate responses
  α7 functional classification (silent agonist / inactive): simply inactive

## C[S+](Cc1ccccc1)Cc1ccccc1 [Compound S8, dibenzyl(methyl)sulfonium tetrafluoroborate]
α7 nAChR [2]; [5]
  60 µM ACh peak currents, % controls: 21 ± 3%
  1 mM ACh net-charge responses, % of those obtained without S8 co-application: 56 ± 6%
α7 nAChR [2]; 5 µM S8 pre-applied and co-applied, n = 8, read-out: 60 µM ACh net-charge responses, % of controls
  remaining activity at 5 µM: 28 ± 2%
α7 nAChR [2]; net charge, co-application, eight cells, read-out: IC50 for inhibition of 60 µM ACh responses
  IC50: 4.9 ± 2.7 µM
α7 nAChR [2]; with 5 µM S8 pre- and co-application, n = 8
  1 mM ACh peak-current amplitudes compared to 60 µM controls: 3.72 ± 0.81
[4]
  relative antagonist activity: most active antagonist
α3β4 nAChR
  IC50: 3.4 ± 0.4 µM

## C[S+](C)c1ccc(O)cc1O [Compound S5, (2,4-dihydroxyphenyl)dimethylsulfonium trifluoromethanesulfonate]
pKa by titration; phenolic hydroxyl, data not shown for S9, S10, read-out: pKa
  pKa: ~6.3
pKa by titration; read-out: pKa for the second hydroxyl
  pKa: 9.2
α7 nAChR [2]; net charge
  inhibition of responses to 60 µM ACh: failed to produce inhibition
α7 nAChR [3]
  response when co-applied with TQS: did not generate responses
  α7 functional classification (silent agonist / inactive): simply inactive

## CC[S+](CC)CC [Compound S11, triethylsulfonium iodide]
α7 nAChR [1]
  IMax (PNU Activation): >1.8
α7 nAChR [2]
  effect on 60 µM ACh response at 1 mM: not statistically significant
α7 nAChR [3]
  α7 functional classification (silent agonist / inactive): silent agonist
α3β4 nAChR
  IC50: 108 ± 20 µM

From article PMC8464850, “Sulfonium Ligands of the α7 nAChR” (Molecules, 2021)
